In US9556183B2, “Substituted pyrazolylpyrazole derivative and use of same as herbicide” (KYOYU AGRI CO., LTD., priority 2013, dated 2017):

Key:
[1] = system: Rice plants; assay: Paddy herbicidal activity test, phytotoxicity to transplanted rice; assay type: in vivo; conditions: rice transplanted at 2.0 leaf stage, 30 days
Method: (§1) Rice paddy soil was filled into a 1/10000 are pot followed by the addition of suitable amounts of water and chemical fertilizer, kneading, seeding with Echinochloa crus-galli, Monochoria vaginalis and Scirpus juncoides and maintaining in an irrigated state at a water depth of 3 cm. Wettable powder of Target Compound (I) shown in Table 1 prepared in compliance with the preparation examples were diluted with a suitable amount of water, rice plants in the 2.0 leaf stage were transplanted during 3.5 leaf stage of Echinochloa crus-galli, and treated by dropping in chemical in the prescribed amount per are using a pipette. After treating for 30 days in a glass greenhouse at an average atmospheric temperature of 30° C., the herbicidal efficacy thereof was investigated. Evaluation of herbicidal efficacy was carried out by comparing growth inhibition rate (%) with an untreated group, while evaluation of phytotoxicity was carried out by comparing growth inhibition rate (%) with the state of a complete eradication group, and were evaluated at 11 levels indicated below. [table]

[2] = system: Scirpus juncoides; assay: Paddy herbicidal activity test; assay type: in vivo; conditions: irrigated paddy pot, 30 days
Method: as §1

[3] = system: Monochoria vaginalis; assay: Paddy herbicidal activity test; assay type: in vivo; conditions: irrigated paddy pot, 30 days
Method: as §1

[4] = system: Echinochloa crus-galli; assay: Paddy herbicidal activity test; assay type: in vivo; conditions: irrigated paddy pot, treated at 3.5 leaf stage of Echinochloa crus-galli, 30 days
Method: as §1

[5] = system: Amaranthus retroflexus; assay: Farming soil treatment test; assay type: in vivo; conditions: soil surface spray prior to weed growth, 30 days
Method: (§2) Evaluation of herbicidal efficacy was carried out by comparing growth inhibition rate (%) with an untreated group, while evaluation of phytotoxicity was carried out by comparing growth inhibition rate (%) with the state of a complete eradication group, and were evaluated at 11 levels indicated below. [table] Field soil was filled into a 1/6000 are pot followed by seeding with Digitaria ciliaris, Chenopodium album and Amaranthus retroflexus and covering with soil. Wettable powder of compounds of formula (I) shown in Table 1 prepared in compliance with the preparation examples were diluted with water to the prescribed amount of chemical and uniformly sprayed onto each soil surface layer using 10 liters of sprayed water per are prior to weed growth following seeding. After treating for 30 days in a glass greenhouse at an average atmospheric temperature of 30° C., the herbicidal efficacy thereof was investigated. Evaluation of herbicidal efficacy was carried out in the same manner as the above-mentioned Test Example 1.

[6] = system: Digitaria ciliaris; assay: Farming soil treatment test; assay type: in vivo; conditions: soil surface spray prior to weed growth, 30 days
Method: as §2

[7] = system: Chenopodium album; assay: Farming soil treatment test; assay type: in vivo; conditions: soil surface spray prior to weed growth, 30 days
Method: as §2

[8] = system: Amaranthus retroflexus; assay: Weed foliar treatment test; assay type: in vivo; conditions: foliar spray, 3 weeks
Method: (§3) Evaluation of herbicidal efficacy was carried out by comparing growth inhibition rate (%) with an untreated group, while evaluation of phytotoxicity was carried out by comparing growth inhibition rate (%) with the state of a complete eradication group, and were evaluated at 11 levels indicated below. [table] Soil was filled into a 1/6000 are pot followed by seeding with Digitaria ciliaris, Chenopodium album and Amaranthus retroflexus, covering with soil, and cultivating in a glass greenhouse at an average atmospheric temperature of 25° C. Wettable powder of Target Compound (I) shown in Table 1 prepared in compliance with the preparation examples were diluted with water to the prescribed amount of chemical and uniformly sprayed onto the weeds using 15 liters of sprayed water per are when Digitaria ciliaris had grown to the 1.0 to 2.0 leaf stage. After treating for 3 weeks in a glass greenhouse at an average atmospheric temperature of 25° C., the herbicidal efficacy thereof was investigated, Evaluation of herbicidal efficacy was carried out in the same manner as the above-mentioned Test Example 1.

[9] = system: Digitaria ciliaris; assay: Weed foliar treatment test; assay type: in vivo; conditions: foliar spray at 1.0 to 2.0 leaf stage of Digitaria ciliaris, 3 weeks
Method: as §3

[10] = system: Chenopodium album; assay: Weed foliar treatment test; assay type: in vivo; conditions: foliar spray, 3 weeks
Method: as §3

Structure (SMILES) | phytotoxicity (growth inhibition rate level) Rice plants ([1]; 1g a.i./10a) | phytotoxicity (growth inhibition rate level) Rice plants ([1]; 5g a.i./10a) | herbicidal efficacy (growth inhibition rate level) Scirpus juncoides ([2]; 1g a.i./10a) | herbicidal efficacy (growth inhibition rate level) Scirpus juncoides ([2]; 5g a.i./10a) | herbicidal efficacy (growth inhibition rate level) Monochoria vaginalis ([3]; 1g a.i./10a) | herbicidal efficacy (growth inhibition rate level) Monochoria vaginalis ([3]; 5g a.i./10a) | herbicidal efficacy (growth inhibition rate level) Echinochloa crus-galli ([4]; 1g a.i./10a) | herbicidal efficacy (growth inhibition rate level) Echinochloa crus-galli ([4]; 5g a.i./10a) | herbicidal efficacy (growth inhibition rate level) Amaranthus retroflexus ([5]; 5g a.i./10a) | herbicidal efficacy (growth inhibition rate level) Amaranthus retroflexus ([5]; 10g a.i./10a) | herbicidal efficacy (growth inhibition rate level) Digitaria ciliaris ([6]; 5g a.i./10a) | herbicidal efficacy (growth inhibition rate level) Digitaria ciliaris ([6]; 10g a.i./10a) | herbicidal efficacy (growth inhibition rate level) Chenopodium album ([7]; 5g a.i./10a) | herbicidal efficacy (growth inhibition rate level) Chenopodium album ([7]; 10g a.i./10a) | herbicidal efficacy (growth inhibition rate level) Amaranthus retroflexus ([8]; 5g a.i./10a) | herbicidal efficacy (growth inhibition rate level) Amaranthus retroflexus ([8]; 10g a.i./10a) | herbicidal efficacy (growth inhibition rate level) Digitaria ciliaris ([9]; 5g a.i./10a) | herbicidal efficacy (growth inhibition rate level) Digitaria ciliaris ([9]; 10g a.i./10a) | herbicidal efficacy (growth inhibition rate level) Chenopodium album ([10]; 5g a.i./10a) | herbicidal efficacy (growth inhibition rate level) Chenopodium album ([10]; 10g a.i./10a) | also measured
N#Cc1cnn(-c2nn3c(c2Cl)CCCC3)c1NCC1CC1 [Compound 1, 1-(3-chloro-4,5,6,7-tetrahydropyrazolo[1,5-a]pyridin-2-yl)-5-(cyclopropylmethylamino)pyrazole-4-carbonitrile] | 0 (0 (exponent): 0% to less than 10% (growth inhibition rate)) | 1 (1: 10% to less than 20%) | 8 (8: 80% to less than 90%) | 9 (9: 90% to less than 100%) | 8 (8: 80% to less than 90%) | 8 (8: 80% to less than 90%) | 9 (9: 90% to less than 100%) | 10 (10: 100%) | 10 (10: 100%) | 10 (10: 100%) | 10 (10: 100%) | 10 (10: 100%) | 10 (10: 100%) | 10 (10: 100%) | 10 (10: 100%) | 10 (10: 100%) | 10 (10: 100%) | 10 (10: 100%) | 10 (10: 100%) | 10 (10: 100%) | melting point: 165 to 166 °C
N#Cc1cnn(-c2nn3c(c2Cl)CCCC3)c1N(CC1CC1)C(=O)C(F)(F)F [Compound 2, N-(1-(3-chloro-4,5,6,7-tetrahydropyrazolo[1,5-a]pyridin-2-yl)-4-cyanopyrazol-5-yl)-N-(cyclopropylmethyl)-2,2,2-trifluoroacetoamide] | 0 (0 (exponent): 0% to less than 10% (growth inhibition rate)) | 1 (1: 10% to less than 20%) | 8 (8: 80% to less than 90%) | 8 (8: 80% to less than 90%) | 8 (8: 80% to less than 90%) | 9 (9: 90% to less than 100%) | 9 (9: 90% to less than 100%) | 9 (9: 90% to less than 100%) | 10 (10: 100%) | 10 (10: 100%) | 10 (10: 100%) | 10 (10: 100%) | 10 (10: 100%) | 10 (10: 100%) | 10 (10: 100%) | 10 (10: 100%) | 10 (10: 100%) | 10 (10: 100%) | 10 (10: 100%) | 10 (10: 100%) | melting point: 87.3 to 101 °C
N#Cc1cnn(-c2nn3c(c2Cl)CCCC3)c1NC1CC1 [Control agent 4.84, reference compound] | 0 (0 (exponent): 0% to less than 10% (growth inhibition rate)) | 2 (2: 20% to less than 30%) | 3 (3: 30% to less than 40%) | 4 (4: 40% to less than 50%) | 2 (2: 20% to less than 30%) | 3 (3: 30% to less than 40%) | 3 (3: 30% to less than 40%) | 5 (5: 50% to less than 60%) | 6 (6: 60% to less than 70%) | 6 (6: 60% to less than 70%) | 5 (5: 50% to less than 60%) | 5 (5: 50% to less than 60%) | 6 (6: 60% to less than 70%) | 6 (6: 60% to less than 70%) | 6 (6: 60% to less than 70%) | 7 (7: 70% to less than 80%) | 5 (5: 50% to less than 60%) | 6 (6: 60% to less than 70%) | 6 (6: 60% to less than 70%) | 7 (7: 70% to less than 80%) | 
N#Cc1cnn(-c2nn3c(c2Cl)CCCC3)c1NCC1CO1 (stereo not shown) [Control agent 4.129, reference compound] | 1 (1: 10% to less than 20%) | 2 (2: 20% to less than 30%) | 3 (3: 30% to less than 40%) | 4 (4: 40% to less than 50%) | 0 (0 (exponent): 0% to less than 10% (growth inhibition rate)) | 0 (0 (exponent): 0% to less than 10% (growth inhibition rate)) | 1 (1: 10% to less than 20%) | 3 (3: 30% to less than 40%) | 6 (6: 60% to less than 70%) | 7 (7: 70% to less than 80%) | 4 (4: 40% to less than 50%) | 5 (5: 50% to less than 60%) | 6 (6: 60% to less than 70%) | 6 (6: 60% to less than 70%) | 7 (7: 70% to less than 80%) | 7 (7: 70% to less than 80%) | 4 (4: 40% to less than 50%) | 5 (5: 50% to less than 60%) | 6 (6: 60% to less than 70%) | 7 (7: 70% to less than 80%) | 
